Source: PMC8308784, “Novel Purine Chemotypes with Activity against Plasmodium falciparum and Trypanosoma cruzi” (Pharmaceuticals, 2021)

Key:
Type in all cases: cell-based
[1] = tested on: P. falciparum 3D7; assay: P. falciparum primary screening at three fixed concentrations; settings: average of at least three experiments; for activity at 1 µM / activity at 10 µM / activity at 100 µM: Plasmodium falciparum, read-out: Primary screening, parasite growth relative to the negative control; for activity at 1 µM: 3D7, compound at 1 µM; for activity at 10 µM: 3D7, compound at 10 µM; for activity at 100 µM: 3D7, compound at 100 µM
Method: Apicomplexan parasite cultures were maintained at 3% hematocrit under an atmosphere of 37 °C in 93% N2, 5% CO2, and 2% O2, following standard methods. Synchronized cultures were obtained via 5% sorbitol lysis.
[…] Conditions were tested in triplicate for every concentration, and the test was repeated when the standard deviation was above 10% for any concentration. Z-values varied between 0.83 and 0.98 in the different plates analyzed. Selected compounds (12.3% potential hit rate) were further analyzed via standard growth inhibition assays, carried out as previously described in [54]. Briefly, parasitemia was adjusted to 1–1.3%, with >90% rings after sorbitol synchronization. Two hundred microliters of parasite culture were plated in 96-well microplates and incubated for 48 h at 37 °C in the presence of decreasing concentrations of the tested compounds, in triplicate. Parasitemia was determined by fluorescence-assisted cell sorting (FACS). Non-infected RBCs and samples containing parasitized RBCs (including controls with DMSO as carrier solvent) were diluted in PBS to a final concentration of ~1–10 × 10^6 cells/mL. The cell suspension was stained with SYTO 11 (0.5 mM stock in DMSO, Thermo Fisher Scientific, Waltham, MA, USA), to a final concentration of 0.5 μM. Samples were analyzed in a Becton Dickinson FACSCalibur. Sample excitation was carried out using a 488-nm, air-cooled argon-ion laser at a power of 15 mW, using forward and side scatter to gate the RBC population, and SYTO 11 green fluorescence (530 nm, FITC filter) was collected in a logarithmic scale. The single-cell population was selected on a forward–side scattergram, and the green fluorescence from this population was analyzed. Parasitemia was expressed as the number of parasitized cells per 100 erythrocytes.
(§1) Absorbance values derived from the anti-T. cruzi assays and fluorescence values from the anti-P. falciparum and cell toxicity assays were normalized to the controls. In the primary screening at three fixed doses, the compounds’ inhibitory activity was expressed as a percentage of the negative control (100% parasitic growth). In dose–response assays, the compounds’ IC50 and TC50 values were determined with GraphPad Prism 7 software (version 7.00, 2016), using a non-linear regression analysis model defined by the following equation: Y=100 ÷(1+10^((LogIC50−X)×HillSlope))

[2] = tested on: T. cruzi Tulahuen strain expressing β-galactosidase; assay: T. cruzi primary screening at three fixed concentrations; settings: average of at least three independent experiments; for Primary screening, growth inhibition values at 1 µM: compound at 1 µM; for Primary screening, growth inhibition values at 10 µM: compound at 10 µM
Method: (§2) T. cruzi parasites from the Tulahuen strain (discrete typing unit (DTU) VI) expressing β-galactosidase were maintained in culture by the infection of LLC-MK2 cells in DMEM supplemented with 2% FBS and 1% penicillin–streptomycin–glutamine (PSG), as described in [52]. When free-swimming trypomastigotes were released to the culture medium, they were centrifuged for 7 min at 2500 rpm and allowed to swim out of the pellet. Trypomastigotes were used to maintain the parasite cycle, or for the performance of the antiparasitic assays.
[…] Conditions were tested in triplicate for every concentration. Z-values varied between 0.81 and 0.92 in the different plates analyzed. Selected compounds (34.6% potential hit rate) were further analyzed via standard growth inhibition assays. The Z-values of dose–response assays correlated with those previously reported. For both assays, Vero cells and trypomastigotes from the Tulahuen T. cruzi strain expressing β-galactosidase were harvested, centrifuged, and resuspended in DMEM without phenol red supplemented with 1% PSG, 2% FBS, 1 mM sodium pyruvate, and 25 mM HEPES. Vero cells and trypomastigotes were counted, diluted at a concentration of 1 × 10^6 cells/mL each, and mixed 1:1 (v/v). Then, 100 μL of that mixture was added per well to the plates already containing the compounds. Each well contained 50,000 host cells and 50,000 parasites, i.e., multiplicity of infection (MOI) = 1. BNZ was used as control of maximal drug growth inhibition in each round, whereas each plate contained its own negative control (maximum parasite growth; Vero cells plus parasites without drugs) and positive control (minimum parasite growth; trypomastigote forms alone marking an enzymatic zero time or baseline galactosidase activity). After four days at 37 °C, 50 µL of a PBS solution containing 0.25% NP40 and 500 µM chlorophenol red-β-D-galactopyranoside (CPRG) substrate were added per well [32]. Plates were incubated at 37 °C for 4 h, and their absorbance read out at 590 nm using an Epoch Gene5 spectrophotometer.
as §1

[3] = tested on: T. cruzi Tulahuen strain expressing β-galactosidase; assay: anti-T. cruzi dose-response growth inhibition assay (Vero cells plus trypomastigotes, CPRG readout); settings: anti-T. cruzi IC50 of non-progressed compounds; read-out: Dose-response assay IC50
Method: as §2
T. cruzi growth was primarily analyzed under three different concentrations ([…]) of the 81 compounds. Conditions were tested in triplicate for every concentration. Z-values varied between 0.81 and 0.92 in the different plates analyzed. Selected compounds (34.6% potential hit rate) were further analyzed via standard growth inhibition assays. The Z-values of dose–response assays correlated with those previously reported. For both assays, Vero cells and trypomastigotes from the Tulahuen T. cruzi strain expressing β-galactosidase were harvested, centrifuged, and resuspended in DMEM without phenol red supplemented with 1% PSG, 2% FBS, 1 mM sodium pyruvate, and 25 mM HEPES. Vero cells and trypomastigotes were counted, diluted at a concentration of 1 × 10^6 cells/mL each, and mixed 1:1 (v/v). Then, 100 μL of that mixture was added per well to the plates already containing the compounds. Each well contained 50,000 host cells and 50,000 parasites, i.e., multiplicity of infection (MOI) = 1. BNZ was used as control of maximal drug growth inhibition in each round, whereas each plate contained its own negative control (maximum parasite growth; Vero cells plus parasites without drugs) and positive control (minimum parasite growth; trypomastigote forms alone marking an enzymatic zero time or baseline galactosidase activity). After four days at 37 °C, 50 µL of a PBS solution containing 0.25% NP40 and 500 µM chlorophenol red-β-D-galactopyranoside (CPRG) substrate were added per well [32]. Plates were incubated at 37 °C for 4 h, and their absorbance read out at 590 nm using an Epoch Gene5 spectrophotometer.
as §1

| SMILES | Primary screening, parasite growth relative to the negative control ([1]; compound at 1 µM) | Primary screening, parasite growth relative to the negative control ([1]; compound at 10 µM) | Primary screening, parasite growth relative to the negative control ([1]; compound at 100 µM) | Primary screening, growth inhibition values at 1 µM [2] | Primary screening, growth inhibition values at 10 µM [2] | IC50 [3] | activity at 1 µM [1] | activity at 10 µM [1] | activity at 100 µM [1] |
| --- | --- | --- | --- | --- | --- | --- | --- | --- | --- |
| c1ccc(COc2ncnc3c2ncn3N2CCOCC2)cc1 [Compound 23] | 101.16% | 104.67% | 98.97% | 93.82 | 94.90 |  |  |  |  |
| CN1CCN(n2c(-c3ccccc3)nc3c(OCc4ccccc4)ncnc32)CC1 [Compound 27] | 97.79% | 87.07% | 63.16% |  |  | 33.2 µM |  |  |  |
| Cc1nc2c(OCc3ccccc3)ncnc2n1N1CCN(C)CC1 [Compound 28] | 90.78% | 89.44% | 44.36% |  |  | 40.4 µM |  |  |  |
| CCOc1ncnc2c1ncn2C(C)C [MJ1] | 102.27% | 99.79% | 94.06% | 94.41 | 97.93 |  |  |  |  |
| Cc1nc2c(OCc3ccccc3)ncnc2n1C(C)C [MJ5] |  |  |  | 89.81 | 90.91 |  | 100% | 94.6% | 88.5% |
| CCOc1ncnc2c1ncn2Cc1ccccc1 [MJ7] |  |  |  | 79.69 | 95.54 |  | 104% | 105% | 53.8% |
| CCOc1ncnc2c1nc(C)n2Cc1ccccc1 [MJ8] | 107.34% | 100.82% | 82.46% |  |  | 67.9 µM |  |  |  |
| CC(C)Oc1ncnc2c1ncn2C(C)C [MJ16] |  |  |  | 100.79 | 96.93 |  | 111% | 115% | 102% |
| Cc1nc2c(OC(C)C)ncnc2n1C(C)C [MJ17] | 105.71% | 108.49% | 94.00% | 97.87 | 93.73 |  |  |  |  |
| CCOc1ncnc2c1ncn2C(C)(C)C [MJ24] | 103.15% | 102.53% | 74.90% |  |  | 96.6 µM |  |  |  |
